Data published in patent publication US20230320984A1, “TOFACITINIB-CONTAINING ANHYDROUS ELASTOMER-BASED GEL FORMULATIONS” (Vyne Therapeutics Inc., priority 2022, published 2023).
Where a name gives a salt, the structure may show the parent alone. Read-outs that look alike come from different tables or passages of the source.

Legend:
[1] = Stability of tofacitinib citrate solution in 50 mM citrate buffer at different pH, 60° C.; type: physicochemical; set-up: unit not given here
Text: In one or more embodiments the pH, is about 4, about 4.1, about 4.2, about 4.3, about 4.4, about 4.5, about 4.6, about 4.7, about 4.8, about 4.9 or about 5.

[2] = Solubility test of tofacitinib citrate in solvents and excipients (Method D); type: physicochemical
Protocol: Saturated solutions of tofacitinib citrate in various solvents are generated by agitating (stirring) an excess amount of solid crystalline tofacitinib citrate in the corresponding solvent at ambient conditions. […] An additional analysis is performed after 48 hours of agitation to confirm the determined saturated concentration.

[3] = cited from earlier work
[4] = AD murine model: body weight
Protocol: (§1) Atopic Dermatitis is induced by once daily application for 38 days of 100 μl of 0.5% 2,4-dinitrochlorobenzene (DNCB) solution onto the shaved back skin of mice. Starting on day 32, test formulations are administered once daily onto the shaved back skin of mice in addition to DNCB. Several measurements are taken at different time points:
Daily from Day 32: Body weight, mortality, behaviour (scratching), general condition, AD index.

[5] = system: Atopic Dermatitis induced by DNCB; set-up: species or system mice; details: mouse, in vivo
Protocol: as §1
Day 39: Histological analysis of skin samples, microscopic scoring of AD, blood assays, assay for pro-inflammatory cytokines IL-1β, IL-6, IL-18, TNF-α, IgE, and histamine assays.

[6] = system: Atopic Dermatitis induced by 2,4-dinitrochlorobenzene (DNCB); test: AD murine model: Atopic Dermatitis Index (ADI, mADI) (Method C); type: in vivo; details: DNCB induced mice
Text: In the mouse model the positive control is observed to cause a marked weight loss and thinning of the skin and this can be perceived to mask the scoring observed with the other parameters and omitting it may on one level provide a clearer representation of the treatment potential of the combination since no marked weight loss or thinning is noted other than with the positive control.
The presence of erythema/haemorrhage is scored based on the following scoring grid: • 0=no or no more erythema/haemorrhage on the skin, • 1=weak erythema/haemorrhage on the skin, • 2=moderate erythema/haemorrhage on the skin, • 3=severe erythema/haemorrhage on the skin.
The presence of edema/thickening is scored based on the following scoring grid: • 0=no or no more edema/thickening of the skin, • 1=weak edema/thickening of the skin, • 2=moderate edema/thickening of the skin, • 3=severe edema/thickening of the skin.
The presence of excoriation/erosion is scored based on the following scoring grid: • 0=no or no more excoriation/erosion of the skin, • 1=weak excoriation/erosion of the skin, • 2=moderate excoriation/erosion of the skin, • 3=severe excoriation/erosion of the skin.
The presence of dryness/peeling is scored based on the following scoring grid: • 0=no or no more dryness/peeling of the skin, • 1=weak dryness/peeling of the skin, • 2=moderate dryness/peeling of the skin, • 3=severe dryness/peeling of the skin.
Several measurements are taken at different time points: […]

[7] = system: Hartley-derived albino guinea pigs; details: for test animals with erythema scores of 1 / test animals with erythema scores of 2: 0.1% w/v DNCB challenge
Protocol: A DNCB positive control group consisting of 10 DNCB test and 10 DNCB control guinea pigs are included in this study. The animals are treated as below with the DNCB test animals receiving 0.1% w/v DNCB in acetone and ethanol for induction and 0.1% and 0.05% w/v DNCB in acetone and ethanol for challenge.
The Test Article, placebo control, and the appropriate positive control articles are administered dermally for approximately 6 hours once on Days 0, 7, and 14 for inductions 1 to 3. The animals are reclipped on the day prior to dosing or induction to visualize the test sites clearly for grading. Following a 2-week rest period, a challenge (Day 28) is performed for Test Article group and placebo group on the same animal but on a different test site than the induction site. During the challenge phase the 20 Test Article group and 10 common challenge control guinea pigs are topically treated with Test Article and the 20 placebo control article and the same 10 common challenge control guinea pigs (separate test sites) are topically treated with placebo. Challenge responses for each of these groups are compared with those of the common challenge control animals. If challenge results are considered indefinite a rechallenge is conducted.
On the day prior to the first DNCB induction or dose administration (Day −1), the hair is removed from the left side of the test animals with a small animal clipper. Care is taken to avoid abrading the skin during the clipping procedures. On the day following clipping (Day 0), chambers containing the appropriate material are applied to the clipped area of the test animals and DNCB test animals. For the induction and challenge phases, a dose of 0.3 mL (or maximum volume for viscous materials) is placed on a 25 mm Hill Top Chamber® backed by adhesive tape (occlusive patch). The chambers are then applied to the clipped surface as quickly as possible.
The application site for induction is moved when irritation persists from a previous induction exposure (to ensure the test article is not dosed on compromised skin) but remains on the left side of the animal.
On the day prior to challenge dose administration, the test, placebo control article, challenge control, DNCB test, and DNCB challenge control animals are weighed, and the hair is removed from the right side of the animals.

clinical = details: human, in vivo
Protocol: (§2) Values below the limit of concentration are omitted from determination of geometric mean and geometric % CV.
(§3) Frozen samples are thawed at room temperature and homogenized by vortexing. 10 μL of ISTD2 and 104, of Methanol/Water (50/50, v/v) to each sample (exception blank samples for which 20.0 μL Methanol/Water (50/50, v/v) is added) is addeded to Eppendorf tubes each containing 100 μL sample. 300 μL of acetonitrile is added to each sample and vortexed for additional 10 sec. Next samples are centrifuged for 10 min at 14000 rpm at 5° C. 310 μL of the supernatant is transferred into a 96-DWP. Samples are evaporated at approximately 40° C. (turbovap 96) under N2. 100 μL mobile phase A (see table below) is added to each sample and the 96-DWP is sealed with heatsealing foil and shaken for 5 min on a Vortex-shaker and then centrifuged for 5 min with settings 4500 rpm at 5° C. The 96-DWP is transferred to the autosampler and then the samples are diluted by 100-fold, first by adding 10 μl of sample in 904, of blank plasma/water (dilution 1/10) and then by pipetting 104, of sample diluted 10 fold in 904, of blank plasma (dilution 1/100). The diluted samples are vortexed for 5 sec and processed.
(§4) After, the analyte is separated on a Luna Omega Polar C18 column (50×2.1 mm, 3 μm) with gradient elution of a mobile phase composed of water/acetonitrile/ammonium formate/formic acid it is analyzed using electrospray ionization (ESI) tandem mass spectrometry (MS/MS) in the multiple reaction monitoring mode (MRM).

[8] = Chemical stability of formulations (Method H); type: physicochemical; details: gel with Tofacitinib Citrate 1.0% and Fingolimod HCl 0.01% (Table 38)
Protocol: Where another active agent such as fingolimod is present in the formulations the samples are analyzed for that active agent and its degradation products by HPLC. […] The gradient elution is employed.

[9] = human, in vivo
Protocol: as §2, §3, §4

[10] = system: Human skin from cosmetic reduction surgery; test: Skin penetration (IVPT), vertical diffusion cell (Method A); type: in vitro ADME
Protocol: The skin is dosed with approx. 6 mg of formulation to achieve a dose of ˜ 10 mg/cm2. Receptor solution is collected at pre-determined intervals over the course of 24 hours and analyzed using a liquid chromatography with tandem mass spectrometry (LC-MS/MS) analytical method.
Following 24 hours, the residual formulation is removed from the surface of the skin. The skin surface is tape-stripped up to five times to remove residual formulation and the top of the skin surface layers (Stratum Corneum). The epidermis is then heat-separated from the dermis. The active agent is extracted from the skin layers and the amount of active agent delivered to the epidermis and dermis is then determined by LC-MS/MS.

[11] = Ex 42 Table 42 (fingolimod alone)
[12] = Ex 43 Table 43 (fingolimod and tofacitinib)

C[C@@H]1CCN(C(=O)CC#N)C[C@@H]1N(C)c1ncnc2[nH]ccc12 [Tofacitinib citrate]
Imp B ([1]; pH 4.5, 2 w): 0.10 | RRT 1.29 ([1]; pH 5, 1 w): 0.09 | RRT 1.42 ([1]; pH 5, 1 w): 0.14 | RRT 1.29 ([1]; pH 5, 2 w): 0.08 | Solubility of TOF Citrate ([2]; in 0.02% HCl): 4.06 mg/g | Solubility of TOF Citrate ([2]; in 0.05% NaOH): ND (degraded) | Solubility of TOF Citrate ([2]; in Benzyl Alcohol): 0.81 mg/g | Solubility of TOF Citrate ([2]; in DMSO): >150 mg/g | Solubility of TOF Citrate ([2]; in Diisopropyl adipate): 0.02 mg/g | Solubility of TOF Citrate ([2]; in Dimethyl isosorbate): 1.27 mg/g | Solubility of TOF Citrate ([2]; in Ethanol): 0.61 mg/g | Solubility of TOF Citrate ([2]; in Glycerin): 0.97 mg/g | Solubility of TOF Citrate ([2]; in Hexylene Glycol): 0.25 mg/g | Solubility of TOF Citrate ([2]; in Isopropyl Alcohol): 0.24 mg/g | Solubility of TOF Citrate ([2]; in Isopropyl myristate): <0.02 mg/g | Solubility of TOF Citrate ([2]; in MCT oil (Caprylic/capric triglycerides)): <0.01 mg/g | Solubility of TOF Citrate ([2]; in Oleyl alcohol): 0.09 mg/g | Solubility of TOF Citrate ([2]; in PPG-11 Stearyl ether): 0.02 mg/g | Solubility of TOF Citrate ([2]; in Polyethylene Glycol 200): 5.16 mg/g | Solubility of TOF Citrate ([2]; in Polyethylene Glycol 400): 6.96 mg/g | Solubility of TOF Citrate ([2]; in Propylene Glycol): 1.70 mg/g | Solubility of TOF Citrate ([2]; in Transcutol): 2.01 mg/g | Solubility of TOF Citrate ([2]; in Water): 2.77 mg/g

CCCCCCCCc1ccc(CCC(N)(CO)CO)cc1 [Fingolimod hydrochloride]
solubility ([3]; ethanol): soluble | solubility ([3]; range from pH 1.2-4.5): freely soluble | solubility ([3]; water and methanol): freely soluble | tolerability (body weight) ([4]; fingolimod AD study, 0.1% w/w and 1% w/w): not well tolerated

Triamcinolone
skin thinner than vehicle-treated normal skin [5]: about 0.8 fold | Body weight D39, Mean ([4]; mouse, in vivo): 17.7 g | Body weight D39 mean ([4]; mouse, in vivo): 17.1 g | Mean Body Weight Change d39 − d32 ([4]; mouse, in vivo): −2.80

CC1(C)O[C@@H]2C[C@H]3[C@@H]4CCC5=CC(=O)C=C[C@]5(C)[C@@]4(F)[C@@H](O)C[C@]3(C)[C@]2(C(=O)CO)O1 [triamcinolone acetonide]
AD Index, Mean ADI values D 39 ([6]; combination study (Example 41), D 39): 0.88

O=[N+]([O-])c1ccc(Cl)c([N+](=O)[O-])c1 [DNCB, 2,4-dinitrochlorobenzene]
test animals with dermal scores of 1 ([7]; 0.05% w/v DNCB challenge, 24-hour scoring interval): 4/10 | test animals with erythema scores of 1 ([7]; 24-hour scoring interval): 5/10 | test animals with erythema scores of 2 ([7]; 24-hour scoring interval): 5/10 | test animals with erythema scores of 1 ([7]; 48-hour scoring interval): 6/10 | test animals with erythema scores of 2 ([7]; 48-hour scoring interval): 4/10 | Group mean dermal score at challenge ([7]; challenge with 0.05% w/v DNCB in acetone and ethanol, control animals 0.25): 0.6 | Group mean dermal score at challenge ([7]; challenge with 0.1% w/v DNCB in acetone and ethanol, control animals 0.375): 1.45

C[C@@H]1CCN(C(=O)CC#N)C[C@@H]1N(C)c1ncnc2[nH]ccc12 [tofacitinib]
AUC(0-t) (clinical; AUC(0-12) Median): 1.97 ng·h/mL | AUC(0-t) (clinical; AUC(0-24) Geomean): 3.21 ng·h/mL | AUC(0-t) (clinical; AUC(0-24) Mean): 4.03 ng·h/mL | AUC(0-t) (clinical; AUC(0-24) Median): 3.14 ng·h/mL | Tmax (clinical; Tmax Geomean): 5.05 h | Tmax (clinical; Tmax Median): 6 h | Assay of Tofacitinib, % LC ([8]; 2 months at 40° C.): 99.2 % LC | Assay of Tofacitinib, % LC ([8]; 2 months at 50° C.): 98.6 % LC | Assay of Tofacitinib, % LC ([8]; 3 weeks at 5° C.): 99.3 % LC | Assay of Tofacitinib, % LC ([8]; 3 weeks at 50° C.): 99.1 % LC | AUC(0-12) Median [9]: 1.056 ng·h/mL | Tmax Geomean [9]: 3.00 h | Tmax Median [9]: 3.00 h

CC1(C)O[C@@H]2C[C@H]3[C@@H]4CCC5=CC(=O)C=C[C@]5(C)[C@@]4(F)[C@@H](O)C[C@]3(C)[C@]2(C(=O)CO)O1 [Triamcinolone acetonide]
Body weight: Weight D32 ([4]; DNCB induced mice, Example 41, D32 (treatment start), mean): 18.31 | Body weight: Weight D39 ([4]; DNCB induced mice, Example 41, D39, mean): 15.66 | Mean Body Weight Change d39 − d32 ([4]; DNCB induced mice, Example 41, (+) weight gain, (−) weight loss): −2.65 | ADI breakdown: Dryness-Peeling D39 ([6]; Example 41, D39): 0.88 | ADI breakdown: Edema-Thickening D39 ([6]; Example 41, D39): 0.00 | ADI breakdown: Erythema-Haemorrhage D39 ([6]; Example 41, D39): 0.00 | ADI breakdown: Excoriation-Erosion D39 ([6]; Example 41, D39): 0.00

CCCCCCCCc1ccc(CCC(N)(CO)CO)cc1 [Fingolimod HCl 0.022%]
Dermis concentration, ng (based on the Mean) [10, 11]: 49.16 ng | Epidermis concentration, ng (based on the Mean) [10, 11]: 37.5 ng

CCCCCCCCc1ccc(CCC(N)(CO)CO)cc1 [Fingolimod HCl 0.011%]
Dermis concentration, ng (based on the Mean) [10, 12]: 14.82 ng | Epidermis concentration, ng (based on the Mean) [10, 12]: 16.21 ng
